Experimental data reported in patent US8110570B2, “Modulators of acetyl-coenzyme A carboxylase and methods of use thereof” (Cropsolution, Inc., priority 2008, dated 2012).

Assays:
[1] = test system: hepatic fatty acid synthesis; assay: In vivo inhibition of rat hepatic fatty acid synthesis; conditions: oral
Method: In vivo measurement of fatty acid synthesis inhibition in mammals. Incorporation of [2-^14C]acetate into saponifiable lipids in the livers of mammals (e.g. Sprague Dawley rats, Charles River Laboratories, Boston, Mass. or Harlan Laboratories, Indianapolis, Ind.) can be measured as described previously (Harwood Jr. H. J. et al., J Biol Chem, 39: 37099-37111 (2003)). For example, animals given food and water ad libitum are treated orally at volume of 1.0 ml/200 g of body weight with either an aqueous solution containing 0.5% methyl cellulose (vehicle) or an aqueous solution containing 0.5% methyl cellulose containing test compound. One hour after compound administration, animals receive an intraperitoneal injection of [2-^14C]acetate (0.02 mL, 1 mCi/mL; 50 mCi/mmol. One hour after radiolabel administration, animals are sacrificed by CO2 asphyxiation, and two liver pieces (about 0.75 g each) are removed and saponified at 70° C. for 120 min in 2.5 M NaOH (1.5 mL). After saponification, absolute EtOH (2.5 mL) is added to each sample and the solutions are mixed and allowed to stand overnight. Petroleum ether (4.8 mL) is then added to each sample, and after vigorous shaking (2 min) the mixtures are centrifuged at 1000×g (5 min). The petroleum ether layer containing the nonsaponifiable lipids is removed and discarded. The remaining aqueous layer is acidified (pH<2) by addition of 12 M HCl (0.6 mL) and extracted two times with petroleum ether (4.8 mL). The pooled organic fractions are transferred to liquid scintillation vials, dried under nitrogen, dissolved in Aquasol scintillation fluid (7 ml), and radioactivity is quantified by liquid scintillation counting. Inhibition of fatty acid synthesis by the test compound is expressed as a relative percent inhibition of measured incorporation of [2-^14C]acetate into saponifiable lipids during the interval between [2-^14C]acetate injection and CO2 asphyxiation in animals receiving test compound, compared to control animals receiving only the vehicle.
Compounds of the present invention, and salts thereof, were evaluated for inhibition of fatty acid synthesis as described above.

[2] = test system: beta-hydroxybutyrate levels; assay: In vivo elevation of rat serum beta-hydroxybutyrate levels; conditions: orally at 30 mg/Kg
Source text: Determination of blood levels of ketone bodies after oral dosing of ACC inhibitors. Compounds of this invention, and salts thereof, can be evaluated for their potential as treatments for diseases caused by reduced neuronal metabolism by assessing their effects on plasma levels of beta-hydroxybutyrate. Inhibition of ACC leads to increased rates of fatty acid oxidation and therefore production of beta-hydroxybutyrate. Rats (Sprague Rats (Sprague Dawley, Charles River Laboratories, Boston, Mass.) are acclimated for at least 4 days prior to dosing. For example, animals given food and water ad libitum are treated at volume of 1.0 mL/200 g of body weight with either an aqueous solution containing 0.5% methyl cellulose (vehicle) or an aqueous solution containing 0.5% methyl cellulose containing test compound. At various times after compound administration whole blood is collected from a jugular vein catheter into lithium heparin coated tubes, mixed gently, kept on ice and centrifuged (2500×g, 15 minutes at 4° C.) within 1 hour of collection. The isolated plasma is kept frozen at −20° C. until further processing. Plasma levels of beta-hydroxybutyrate are determined using a beta-hydroxybutyrate detection kit following the manufacturer's directions (StanBio Laboratory, Boerne, Tex.). Compounds of the present invention, and salts thereof, were assessed for their ability to increase serum beta-hydroxybutyrate levels as described above.

[3] = biological target: uACC (Ustilago maydis ACC) (Ustilago maydis, UniProt A0A0D1DYD5); assay: [14C]bicarbonate incorporation assay, overall ACC activity; type: biochemical
HepG2 cells = assay: Fatty acid synthesis assay, 14C-acetate incorporation into phospholipids; type: cell-based; conditions: Homo sapiens, 24 h, read-out: inhibition of radiolabel incorporation into phospholipids
Source text: (§1) The in vivo ACC inhibitory activity of compounds in this invention can be confirmed in cultured cells using standard procedures that are well known to those skilled in the art. For example, since ACC catalyzes the first committed step in fatty acid biosynthesis, the in vivo activity of compounds can be confirmed by measuring their ability to prevent the formation of radiolabeled fatty acids from radiolabeled acetate in cultured human hepatoma cells (HepG2). In addition, since the malonyl-CoA produced by ACC inhibits fatty acid oxidation, the in vivo ACC inhibitory activity of compounds can be further confirmed by measuring the stimulation of fatty acid oxidation in cultured mouse myoblast cells (C2C12).
Fatty acid synthesis assays are performed with slight modifications to published procedures (Beckers et al., Cancer Res, 2007, 67: 8180-8187; Wang, J Lipid Res., 2006, 47:2028-41). Briefly, HepG2 cells are grown in Dulbecco's modified eagles medium containing 10% fetal calf serum in 6-well culture plates. Cells are treated for 24 h with test compounds added as DMSO stock solutions to a final DMSO concentration of 0.5% (v/v). After test compound incubation, ^14C—[2]-acetate is added (3 μCi/6 well plate) and cells are further incubated for 4 hrs. Cells are then harvested in 40% methanol and assayed for total protein. Total lipids are extracted with chloroform:methanol (2:1) and ^14C-radioactivity is quantified in the aqueous and organic phases. Total lipids in the organic phase are separated by thin-layer chromatography (TLC, silica gel 60A) using hexane:ether:acetic acid (90:30:1) as the mobile phase. Radioactivity distribution of lipid classes on TLC plates is quantified by phosphorimaging (Molecular Dynamics Storm 820). Compound 6 inhibited radiolabel incorporation into phospholipids 32% and 14% at 10 μM and 1 μM, respectively, while Compound 2 inhibited radiolabel incorporation into phospholipids 93% and 42% at 10 μM and 1 μM, respectively.

C2C12 cells = assay: Fatty acid oxidation assay, [1-14C]palmitate to CO2; type: cell-based, mouse; conditions: compared to untreated controls
Source text: as §1
Fatty acid oxidation assays are performed essentially as described (Beckers et al., Cancer Res, 2007, 67: 8180-8187). Briefly, C2C12 cells are plated at 600,000 cells/T25 flask. The next day, media is changed and the DMSO with or without test compound is added to a final concentration of 0.5% (v/v). After 1 h at 37° C. in atmosphere of 5% CO2, freshly made 2 uCi of FA-free bovine serum albumin-[1-^14C] palmitate complex is added to each flask. The flasks are then sealed with a stopper and incubated 6 h at 37° C. after which evolved CO2 is liberated by injection of perchloric acid to final concentration of 5% and captured by incubating the flasks overnight in the presence of filter paper soaked with 5% KOH. The filters are then air-dried and incubated with scintillation cocktail overnight for equilibrium. Radioactivity is quantified by scintillation counting.

Sequence of uACC (Ustilago maydis ACC) (A0A0D1DYD5 entry or part of it): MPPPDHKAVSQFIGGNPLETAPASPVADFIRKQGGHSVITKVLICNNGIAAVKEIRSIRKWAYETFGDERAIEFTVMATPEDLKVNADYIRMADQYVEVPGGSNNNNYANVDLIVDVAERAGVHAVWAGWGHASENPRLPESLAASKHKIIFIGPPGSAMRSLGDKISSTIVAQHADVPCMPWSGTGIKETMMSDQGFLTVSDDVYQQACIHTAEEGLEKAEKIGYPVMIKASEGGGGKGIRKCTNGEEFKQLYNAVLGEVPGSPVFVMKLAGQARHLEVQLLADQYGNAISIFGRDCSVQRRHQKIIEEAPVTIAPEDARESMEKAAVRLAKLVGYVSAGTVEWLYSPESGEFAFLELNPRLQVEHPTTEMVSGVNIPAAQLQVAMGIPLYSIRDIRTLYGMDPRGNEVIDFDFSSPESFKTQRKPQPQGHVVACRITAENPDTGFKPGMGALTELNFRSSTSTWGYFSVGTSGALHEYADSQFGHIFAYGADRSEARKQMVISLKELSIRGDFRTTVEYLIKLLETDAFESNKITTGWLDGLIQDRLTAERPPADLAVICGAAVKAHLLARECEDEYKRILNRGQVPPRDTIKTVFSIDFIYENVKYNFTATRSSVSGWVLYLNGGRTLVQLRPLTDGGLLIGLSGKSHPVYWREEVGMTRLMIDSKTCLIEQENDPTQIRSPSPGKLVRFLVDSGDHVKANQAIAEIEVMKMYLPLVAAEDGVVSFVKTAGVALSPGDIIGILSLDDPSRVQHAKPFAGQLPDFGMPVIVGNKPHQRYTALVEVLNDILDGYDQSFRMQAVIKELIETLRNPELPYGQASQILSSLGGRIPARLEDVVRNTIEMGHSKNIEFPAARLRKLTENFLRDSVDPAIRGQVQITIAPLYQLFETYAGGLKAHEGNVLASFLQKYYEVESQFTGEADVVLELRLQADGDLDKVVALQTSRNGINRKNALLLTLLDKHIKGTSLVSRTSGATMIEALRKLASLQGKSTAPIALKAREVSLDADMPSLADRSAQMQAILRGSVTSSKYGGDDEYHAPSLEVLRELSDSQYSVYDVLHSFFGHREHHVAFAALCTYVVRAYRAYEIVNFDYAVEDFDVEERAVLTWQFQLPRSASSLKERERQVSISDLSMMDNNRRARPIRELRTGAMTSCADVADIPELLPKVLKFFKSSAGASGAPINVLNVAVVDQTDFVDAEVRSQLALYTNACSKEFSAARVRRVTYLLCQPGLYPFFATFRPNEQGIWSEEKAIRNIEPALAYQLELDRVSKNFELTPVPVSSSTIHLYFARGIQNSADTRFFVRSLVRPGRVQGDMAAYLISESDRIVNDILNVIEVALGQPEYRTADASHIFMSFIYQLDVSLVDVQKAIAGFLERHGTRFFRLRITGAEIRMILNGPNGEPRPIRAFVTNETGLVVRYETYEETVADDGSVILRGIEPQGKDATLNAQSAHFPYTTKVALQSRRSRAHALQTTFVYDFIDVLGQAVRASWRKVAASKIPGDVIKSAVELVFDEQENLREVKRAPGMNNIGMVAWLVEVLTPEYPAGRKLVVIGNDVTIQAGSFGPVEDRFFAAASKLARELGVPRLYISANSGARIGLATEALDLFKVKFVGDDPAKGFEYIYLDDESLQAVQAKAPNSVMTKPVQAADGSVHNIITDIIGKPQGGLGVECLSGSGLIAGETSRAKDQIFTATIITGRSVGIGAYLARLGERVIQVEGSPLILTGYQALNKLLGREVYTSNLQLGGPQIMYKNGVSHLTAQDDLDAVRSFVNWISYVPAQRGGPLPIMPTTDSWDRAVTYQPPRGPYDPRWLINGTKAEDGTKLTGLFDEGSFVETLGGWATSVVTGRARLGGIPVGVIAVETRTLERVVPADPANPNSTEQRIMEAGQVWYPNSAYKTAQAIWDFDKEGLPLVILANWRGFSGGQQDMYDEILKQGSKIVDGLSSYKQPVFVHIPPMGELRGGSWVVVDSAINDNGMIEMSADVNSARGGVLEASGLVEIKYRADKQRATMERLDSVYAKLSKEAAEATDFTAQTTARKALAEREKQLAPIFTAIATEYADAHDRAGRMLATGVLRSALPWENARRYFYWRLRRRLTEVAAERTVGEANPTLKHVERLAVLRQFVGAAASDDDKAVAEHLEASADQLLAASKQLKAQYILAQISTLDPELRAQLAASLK

Structure (SMILES)	Percent Inhibition at 10 mg/Kg [1] [%]	Percent Inhibition at 30 mg/Kg [1] [%]	Average beta-Hydroxybutyrate Concentration ([2]; 15 min) [mM]	Average beta-Hydroxybutyrate Concentration ([2]; 30 min) [mM]	Average beta-Hydroxybutyrate Concentration ([2]; 60 min) [mM]	Average beta-Hydroxybutyrate Concentration ([2]; 120 min) [mM]	Average beta-Hydroxybutyrate Concentration ([2]; 240 min) [mM]	IC50 [3] [µM]	inhibition at 1 µM (HepG2 cells; HepG2, 1 μM) [%]	inhibition at 10 µM (HepG2 cells; HepG2, 10 μM) [%]	stimulation of fatty acid oxidation (C2C12 cells; C2C12, 0.1 μM) [%]	stimulation of fatty acid oxidation (C2C12 cells; C2C12, 1 μM) [%]
COc1ccc2c(c1)C(=O)NC1(CCN(C(=O)c3cc(OC)c4cccc(OC)c4n3)CC1)O2 [Compound 150]	20	54	0.160	0.214	0.147	0.140	0.102	–	–	–	–	–
COc1cc(C(=O)N2CCC3(CC2)NC(=O)c2cc(Br)ccc2O3)nc2c(OC)cccc12 [Compound 2, 6-Bromo-1′-[(4,8-dimethoxyquinoline-2-yl)carbonyl]spiro[2H-1,3-benzoxazine-2,4′-piperidine]-4(3H)-one]	–	–	–	–	–	–	–	11	42	93	170	320
COc1cc(C(=O)N2CCC3(CC2)NC(=O)c2cc(OC(C)C)ccc2O3)nc2c(OC)cccc12 [Compound 169]	30	60	0.149	0.201	0.135	0.126	0.118	–	–	–	–	–
